Source: US20230150986A1, “ANTAGONISTS OF THE MUSCARINIC ACETYLCHOLINE RECEPTOR M4” (Vanderbilt University, priority 2019, published 2023)
pIC50: −log10 of the molar value.

Target: T1, Human M4 (Homo sapiens, UniProt P08173)
T1 construct: Human or rat M4 cDNA, along with the chimeric G protein Gq,5, were transfected into Chinese hamster ovary (CHO-K1) cells; expressed in transfected cells; host or cells: CHO-K1 (M4/Gqi5/CHO)
T1 sequence (P08173 1-479): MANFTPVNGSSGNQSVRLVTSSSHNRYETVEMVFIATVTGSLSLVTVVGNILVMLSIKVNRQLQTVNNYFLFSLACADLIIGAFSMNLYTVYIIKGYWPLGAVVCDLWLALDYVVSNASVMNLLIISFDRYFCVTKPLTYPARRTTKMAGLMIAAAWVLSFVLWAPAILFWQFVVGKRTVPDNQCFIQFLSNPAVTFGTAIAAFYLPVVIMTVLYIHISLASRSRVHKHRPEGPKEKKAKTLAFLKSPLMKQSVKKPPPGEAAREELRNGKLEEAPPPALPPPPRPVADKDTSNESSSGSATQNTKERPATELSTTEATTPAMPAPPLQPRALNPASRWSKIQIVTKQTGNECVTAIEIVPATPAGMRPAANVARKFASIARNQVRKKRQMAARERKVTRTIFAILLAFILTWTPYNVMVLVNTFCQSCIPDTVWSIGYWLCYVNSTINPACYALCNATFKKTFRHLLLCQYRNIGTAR
Assay: mAChR M4 cell-based functional assay (calcium flux, decrease of EC80 acetylcholine response)
Conditions: for Human M4 Emin: % ACh maximum at 30 μM; for pIC50: CHO-K1 cells with human M4 and Gqi5, EC80 acetylcholine
Procedure: Human or rat M4 cDNA, along with the chimeric G protein Gq,5, were transfected into Chinese hamster ovary (CHO-K1) cells purchased from the American Type Culture Collection using Lipofectamine2000. M4/Gqi5/CHO cells were grown in Ham's F-12 medium containing 10% heat-inactivated fetal bovine serum (FBS), 20 mM HEPES, 500 μg/mL G^418 sulfate, and 200 μg/mL Hygromycin B.
For high throughput measurement of agonist-evoked increases in intracellular calcium, CHO-K1 cells stably expressing muscarinic receptors were plated in growth medium lacking G418 and hygromycin at 15,000 cells/20 μL/well in Greiner 384-well black-walled, tissue culture (TC)-treated, clear-bottom plates (VWR). Cells were incubated overnight at 37° C. and 5% CO2. The next day, cells were washed using an ELX 405 (BioTek) with assay buffer; the final volume was then aspirated to 20 μL. Next, 20 μL of a 2.3 μM stock of Fluo-4/acetoxymethyl ester (Invitrogen, Carlsbad, Calif.), prepared as a 2.3 mM stock in DMSO and mixed in a 1:1 ratio with 10% (w/v) Pluronic F-127 and diluted in assay buffer, was added to the wells and the cell plates were incubated for 50 min at 37° C. and 5% CO2. Dye was removed by washing with the ELX 405 and the final volume was aspirated to 20 μL. Compound master plates were formatted in a 10 point concentration-response curve (CRC) format (1:3 dilutions) in 100% DMSO with a starting concentration of 10 or 1 mM using a BRAVO liquid handler (Agilent). Test compound CRCs were then transferred to daughter plates (240 nL) using the Echo acoustic plate reformatter (Labcyte, Sunnyvale, Calif.) and then diluted into assay buffer (40 μL) to a 2× stock using a Thermo Fisher Combi (Thermo Fisher Scientific, Waltham, Mass.).
Calcium flux was measured using the Functional Drug Screening System (FDSS) 6000 or 7000 (Hamamatsu Corporation, Tokyo, Japan) as an increase in the fluorescent static ratio. Compounds were applied to cells (20 μL, 2×) using the automated system of the FDSS at 2 seconds into the protocol and the data were collected at 1 Hz. At 143 s, 10 μL of an EC20 concentration of the muscarinic receptor agonist acetylcholine was added (5×), followed by the addition of […] of an EC80 concentration of acetylcholine at the 268 s time point (5×). Agonist activity was analyzed as a concentration-dependent increase in calcium mobilization upon compound addition. Positive allosteric modulator activity was analyzed as a concentration-dependent increase in the EC2o acetylcholine response. Antagonist activity was analyzed as a concentration-dependent decrease in the EC80 acetylcholine response; for the purposes of the tables herein, an IC50 (inhibitory concentration 50) was calculated as a concentration-dependent decrease of the response elicited by an EC80 concentration of acetylcholine. Concentration-response curves were generated using a four-parameter logistical equation in XLFit curve fitting software (IDBS, Bridgewater, N.J.) for Excel (Microsoft, Redmond, Wash.) or Prism (GraphPad Software, Inc., San Diego, Calif.) or the Dotmatics software platform (Dotmatics, Bishop's Stortford, UK).
Compounds were synthesized as described above. Activity (IC50 and Emin) was determined in the mAChR M4 cell-based functional assay as described above and the data are shown in Table 2.

Human M4 Emin [%] | pIC50 | Structure (SMILES)
3 | 7.19 | [2H]C([2H])([C@H]1CCOC1)N1C[C@H]2C[C@H](Nc3ccc(-c4cc(F)cc(F)c4F)nn3)C[C@H]2C1 [Compound 41, (3aR,5s,6aS)-2-(((R)-tetrahydrofuran-3-yl)methyl-d2)-N-(6-(2,3,5-trifluorophenyl)pyridazin-3-yl)octahydrocyclopenta[c]pyrrol-5-amine]
4 | 9.02 | [2H]C([2H])([C@@H]1CCCCO1)N1C[C@H]2C[C@H](Nc3ccc(-c4cc(F)cc(F)c4F)nn3)C[C@H]2C1 [Compound 43, (3aR,5s,6aS)-2-(((S)-tetrahydro-2H-pyran-2-yl)methyl-d2)-N-(6-(2,3,5-trifluorophenyl)pyridazin-3-yl)octahydrocyclopenta[c]pyrrol-5-amine]
1 | 6.85 | [2H]C(C)(N1C[C@H]2C[C@H](Nc3ccc(-c4cc(F)cc(F)c4F)nn3)C[C@H]2C1)C1(C)CCOCC1 (stereo partly drawn) [Compound 45, (3aR,5s,6aS)-2-(1-(4-methyltetrahydro-2H-pyran-4-yl)ethyl-1-d)-N-(6-(2,3,5-trifluorophenyl)pyridazin-3-yl)octahydrocyclopenta[c]pyrrol-5-amine]
2 | 8.16 | [2H]C([2H])(N1C[C@H]2C[C@H](Nc3ccc(-c4cc(F)cc(F)c4F)nn3)C[C@H]2C1)C1(C)CCCCO1 (stereo partly drawn) [Compound 50, (3aR,5s,6aS)-2-((2-methyltetrahydro-2H-pyran-2-yl)methyl-d2)-N-(6-(2,3,5-trifluorophenyl)pyridazin-3-yl)octahydrocyclopenta[c]pyrrol-5-amine]
3 | 7.49 | CC(C)(C)CCN1C[C@H]2C[C@H](Nc3ccc(-c4cc(F)cc(F)c4F)nn3)C[C@H]2C1 [Compound 51, (3aR,5s,6aS)-2-(3,3-dimethylbutyl)-N-(6-(2,3,5-trifluorophenyl)pyridazin-3-yl)octahydrocyclopenta[c]pyrrol-5-amine]
5 | 6.80 | CC(C)(O)CCN1C[C@H]2C[C@H](Nc3ccc(-c4cc(F)cc(F)c4F)nn3)C[C@H]2C1 [Compound 54, 2-methyl-4-((3aR,5s,6aS)-5-((6-(2,3,5-trifluorophenyl)pyridazin-3-yl)amino)hexahydrocyclopenta[c]pyrrol-2(1H)-yl)butan-2-ol]
3 | 7.60 | Fc1cc(F)c(F)c(-c2ccc(N[C@H]3C[C@@H]4CN(CC5CC(F)(F)C5)C[C@@H]4C3)nn2)c1 [Compound 57, (3aR,5s,6aS)-2-((3,3-difluorocyclobutyl)methyl)-N-(6-(2,3,5-trifluorophenyl)pyridazin-3-yl)octahydrocyclopenta[c]pyrrol-5-amine]

Continued, compound first:

Structure (SMILES) | Human M4 Emin [%] | pIC50
[2H]C([2H])([C@H]1COCCO1)N1C[C@H]2C[C@H](Nc3ccc(-c4cc(F)cc(F)c4F)nn3)C[C@H]2C1 [Compound 39, (3aR,5s,6aS)-2-(((S)-1,4-dioxan-2-yl)methyl-d2)-N-(6-(2,3,5-trifluorophenyl)pyridazin-3-yl)octahydrocyclopenta[c]pyrrol-5-amine] | 3 | 9.25
[2H]C([2H])([C@H]1CCCCO1)N1C[C@H]2C[C@H](Nc3ccc(-c4cc(F)cc(F)c4F)nn3)C[C@H]2C1 [Compound 40, (3aR,5s,6aS)-2-(((R)-tetrahydro-2H-pyran-2-yl)methyl-d2)-N-(6-(2,3,5-trifluorophenyl)pyridazin-3-yl)octahydrocyclopenta[c]pyrrol-5-amine] | 3 | 8.83
[2H]C([2H])([C@@H]1COCCO1)N1C[C@H]2C[C@H](Nc3ccc(-c4cc(F)cc(F)c4F)nn3)C[C@H]2C1 [Compound 42, (3aR,5s,6aS)-2-(((R)-1,4-dioxan-2-yl)methyl-d2)-N-(6-(2,3,5-trifluorophenyl)pyridazin-3-yl)octahydrocyclopenta[c]pyrrol-5-amine] | 3 | 7.46
[2H]C([2H])([C@@H]1CCOC1)N1C[C@H]2C[C@H](Nc3ccc(-c4cc(F)cc(F)c4F)nn3)C[C@H]2C1 [Compound 44, (3aR,5s,6aS)-2-(((S)-tetrahydrofuran-3-yl)methyl-d2)-N-(6-(2,3,5-trifluorophenyl)pyridazin-3-yl)octahydrocyclopenta[c]pyrrol-5-amine] | 2 | 7.50
CC(N1C[C@H]2C[C@H](Nc3ccc(-c4cc(F)cc(F)c4F)nn3)C[C@H]2C1)C1(C)CCOCC1 (stereo partly drawn) [Compound 46, (3aR,5s,6aS)-2-(1-(4-methyltetrahydro-2H-pyran-4-yl)ethyl)-N-(6-(2,3,5-trifluorophenyl)pyridazin-3-yl)octahydrocyclopenta[c]pyrrol-5-amine] | 2 | 7.23
[2H]C([2H])(N1C[C@H]2C[C@H](Nc3ccc(-c4cc(F)cc(F)c4F)nn3)C[C@H]2C1)C1(OC)CCCOC1 (stereo partly drawn) [Compound 48, (3aR,5s,6aS)-2-((3-methoxytetrahydro-2H-pyran-3-yl)methyl-d2)-N-(6-(2,3,5-trifluorophenyl)pyridazin-3-yl)octahydrocyclopenta[c]pyrrol-5-amine] | 2 | 6.74
[2H]C([2H])(N1C[C@H]2C[C@H](Nc3ccc(-c4cc(F)cc(F)c4F)nn3)C[C@H]2C1)C1(C)CCCOC1 (stereo partly drawn) [Compound 49, (3aR,5s,6aS)-2-((3-methyltetrahydro-2H-pyran-3-yl)methyl-d2)-N-(6-(2,3,5-trifluorophenyl)pyridazin-3-yl)octahydrocyclopenta[c]pyrrol-5-amine] | 2 | 7.59
CC1(O)CC(CN2C[C@H]3C[C@H](Nc4ccc(-c5cc(F)cc(F)c5F)nn4)C[C@H]3C2)C1 (stereo partly drawn) [Compound 52] | 3 | 7.77
CC(C)(C)OCCN1C[C@H]2C[C@H](Nc3ccc(-c4cc(F)cc(F)c4F)nn3)C[C@H]2C1 [Compound 53, (3aR,5s,6aS)-2-(2-(tert-butoxy)ethyl)-N-(6-(2,3,5-trifluorophenyl)pyridazin-3-yl)octahydrocyclopenta[c]pyrrol-5-amine] | 3 | 8.59
[2H]C([2H])(C1CC(C)(O)C1)N1C[C@H]2C[C@H](Nc3ccc(-c4cc(F)cc(F)c4F)nn3)C[C@H]2C1 (stereo partly drawn) [Compound 55, 1-methyl-3-(((3aR,5s,6aS)-5-((6-(2,3,5-trifluorophenyl)pyridazin-3-yl)amino)hexahydrocyclopenta[c]pyrrol-2(1H)-yl)methyl-d2)cyclobutan-1-ol] | 5 | 7.82
[2H]C([2H])(COC(C)(C)C)N1C[C@H]2C[C@H](Nc3ccc(-c4cc(F)cc(F)c4F)nn3)C[C@H]2C1 [Compound 56, (3aR,5s,6aS)-2-(2-(tert-butoxy)ethyl-1,1-d2)-N-(6-(2,3,5-trifluorophenyl)pyridazin-3-yl)octahydrocyclopenta[c]pyrrol-5-amine] | 3 | 8.52
